Experimental data published in patent publication US20040038947A1, “Method of treating ischemia/reperfusion injury with nitroxyl donors” (The Gov. of the U.S. of America as represented by the Sec. …, priority 2002, published 2004).

Assays:
Isolated rat hearts [1] = assay: Myocardial injury: infarct area by nitro blue tetrazolium staining; details: AS 1 μM pre-ischemic; p<0.01 vs controls
Method: (§1) Experimental Protocols. Hearts were allowed to stabilize for 30 min, and baseline parameters were recorded. Typically, coronary flow was adjusted within the first 10 min and kept constant from thereon. After 30 min stabilization, hearts were randomly assigned to one of the treatment groups reported below (n=12 in each group), and then subjected to 30 min global, no-flow ischemia, followed by 30 min of reperfusion (I/R) (see FIG. 1). Pacing of the hearts was stopped at the beginning of the ischemic period and restarted after the third minute of reperfusion.
(§2) Hearts in the control group (Group 1) were perfused with buffer for an additional 29 min after stabilization. Group 2 hearts were exposed to AS (1 μM final concentration) for 19 min followed by a 10 min buffer wash-out period. Group 3 hearts were exposed to DEA/NO (0.5 μM final concentration) administered in the same manner as AS. The concentration of DEA/NO was only one half of that of AS since DEA/NO releases up to two moles of […] per mole of donor molecule. In Group 4, a train of three cycles of 3 min global ischemia followed by 5 min of reperfusion was applied after the stabilization phase, followed by a final 10 min buffer wash-out period (IPC protocol).
(§3) Group 5 hearts were exposed to the vehicle (NaOH, final concentration 100 nM) used to dissolve both AS and DEA/NO. To test the influence of switching the myocardial redox state on AS-induced effects, in an additional group of hearts (Group 6) AS was co-infused with N-acetyl-L-cysteine (NAC, 4 mM final concentration). For comparison, hearts were also exposed to NAC alone (Group 7). […]
To corroborate the data relative to myocardial injury, determined by LDH release, infarct areas were also assessed in a blinded fashion. […] The weight of the necrotic and non-necrotic tissues was then determined and the necrotic mass expressed as a percentage of total left ventricular mass.

Isolated rat hearts [2] = assay: Pre-ischemic cardiac function of isolated perfused rat hearts (Table 1); details: mean
Method: Isolated heart perfusion. Each animal was anesthetized with 1 g/kg urethane i.p. 10 min after heparin (2,500 U, i.m.) treatment. The chest was opened, and the heart was rapidly excised, placed in ice-cold buffer solution and weighed. Isolated rat hearts were attached to the perfusion apparatus and retrogradely perfused with oxygenated buffer solution at 37° C. The hearts were instrumented as previously described in Rastaldo et al., “P-450 metabolite of arachidonic acid mediates bradykinin-induced negative inotropic effect,” Am. J. Physiol., 280:H2823-H2832 (2001), and Paolocci et al. “cGMP-independent inotropic effects of nitric oxide and peroxynitrite donors: potential role for nitrosylation,” Am. J. Physiol., 279: H1982-H1988 (2000). The flow was maintained constant (9±2 mL/min/g wet weight) to reach a typical coronary perfusion pressure of 85-90 mm Hg. A constant proportion of 10% of the flow rate was applied by means of one of two perfusion pumps (Terumo, Tokyo, Japan) using a 50 mL syringe connected to the aortic cannula. Drug applications (see Experimental Protocols) were performed by switching from the syringe containing buffer alone to the syringe of the other pump containing the drug dissolved in the vehicle at a concentration 10× to the desired final concentration in the heart. A small hole in the left ventricular wall allowed drainage of the thebesian flow, and a polyvinyl-chloride balloon was placed into the left ventricle and connected to an electromanometer for recording of left ventricular pressure (LVP). The hearts were electrically paced at 280-300 bpm and kept in a temperature-controlled chamber (37° C.). Coronary perfusion pressure (CPP) and coronary flow were monitored with a second electromanometer and an electromagnetic flow-probe, respectively, both placed along the perfusion line. Left ventricular pressure, coronary flow and coronary perfusion pressure were recorded using a TEAC R-71 recorder, digitized at 1000 Hz and analyzed off-line with DataQ-Instruments/CODAS software, which allowed quantification of the maximum rate of increase of LVP during systole (dP/dtmax).
Hearts were perfused with Krebs-Henseleit solution gassed with 95% O2 and 5% CO2 of the following composition: 17.7 mM sodium bicarbonate, 127 mM NaCl, 5.1 mM KCl, 1.5 mM CaCl2, 1.26 mM MgCl2, 11 mM D-glucose, supplemented with 5 μg/mL lidocaine.
as §1, §2, §3

rat renal tissue = details: administered during ischemia and 5 minutes before reperfusion; rat kidney; cited from earlier work
anesthetized rabbits = details: administered during ischemia and 5 minutes prior to reperfusion; cited from earlier work
Isolated rat hearts [3] = assay: Myocardial injury: LDH release in coronary effluent during reperfusion; details: pre-treatment; control 686±14 U/g wet wt; FIG. 4A
Method: as §1
Hearts in the control group (Group 1) were perfused with buffer for an additional 29 min after stabilization. Group 2 hearts were exposed to AS (1 μM final concentration) for 19 min followed by a 10 min buffer wash-out period. Group 3 hearts were exposed to DEA/NO (0.5 μM final concentration) administered in the same manner as AS. The concentration of DEA/NO was only one half of that of AS since DEA/NO releases up to two moles of […] per mole of donor molecule. […]
Assessment of myocardial injury. […] LDH release was measured as previously described by Bergmeyer & Bernt, “Methods of Enzymatic Analysis,” Verlag Chemie (1974). Data are expressed as cumulative values for the entire reflow period.

[4] = End of stabilization period (baseline of the group, before treatment)
[5] = Post-treatment (pre-ischemic), AS 1 μM, DEA/NO 0.5 μM, NAC 4 mM, 19 min then 10 min wash-out

With `[Na+].[Na+].[O-][N+]([O-])=NO` [AS, sodium trioxodinitrate] the “Infarct size reduction compared to controls” value (Isolated rat hearts [1]) was 55%, the “CPP (coronary perfusion pressure)” value (Isolated rat hearts [2]; [4]) was 89 mmHg and the DP/dtmax (Isolated rat hearts [2]; [4]) was 3145 mmHg/s. The “Developed LVP” value (Isolated rat hearts [2]; [4]) was 99 mmHg, the “LVEDP (left ventricular end-diastolic pressure)” value (Isolated rat hearts [2]; [4]) was 9 mmHg and the “CPP (coronary perfusion pressure)” value (Isolated rat hearts [2]; [5]) was 88 mmHg. For the same compound, the DP/dtmax (Isolated rat hearts [2]; [5]) was 3223 mmHg/s, the “Developed LVP” value (Isolated rat hearts [2]; [5]) was 98 mmHg and the “LVEDP (left ventricular end-diastolic pressure)” value (Isolated rat hearts [2]; [5]) was 10 mmHg. The “Effect on neutrophil infiltration into renal tissue” value (rat renal tissue) was “contributed to neutrophil infiltration into the tissue”, the “Effect on myocardial ischemia/reperfusion injury” value (anesthetized rabbits) was “increased myocardial ischemia/reperfusion injury” and the “LDH release into the coronary venous effluent during reperfusion” value (Isolated rat hearts [3]) was “significantly reduced”.
